# Assay results taken from publication PMC3237458, “PEGylation Potentiates the Effectiveness of an Antagonistic Peptide That Targets the EphB4 Receptor with Nanomolar Affinity” (PLoS ONE, 2011).
# “Also recorded” adds a separate entry of the source. Square brackets hold non-standard residues; d marks the D form. Peptide text beside a SMILES is read from it. * marks the point of attachment. Biotin = O=C1N[C@H]2[C@H](CS[C@H]2CCCCC(=O)*)N1; Ahx = NCCCCCC(=O)O
# Legend:
# [1] = Peptide retention in mouse blood circulation; assay type: in vivo; details: 6 nmoles biotinylated TNYL-RAW IV, 3 mice, serum diluted 1:20, ELISA on EphB4 Fc; Figure 1D
# Method: 2.1 nmoles TNYL-RAW-Fc, 1.5 nmoles TNYL-RAW-streptavidin and 6 nmoles PEG-TNYL-RAW, diluted in 150 µl sterile PBS, were administered to C57BL/6 mice by intravenous or intraperitoneal injection. Blood was collected from each mouse from the orbital sinus at two time points after injection and by cardiac puncture under Avertin anesthesia at a third time point. These experiments were carried out in accordance with the recommendations in the Guide for the Care and Use of Laboratory Animals of the National Institutes of Health. The protocol was approved by the Institutional Animal Care and Use Committee of the Sanford-Burnham Medical Research Institute (Animal Assurance Number: A-3053-1). After collection, the blood was […], and the serum was stored at −20°C. The different forms of TNYL-RAW in the serum were detected by using the same ELISA assays described above for measurements of binding affinity. The absorbance from wells incubated with mouse serum without TNYL-RAW was subtracted as the background and the concentration of TNYL-RAW in the blood was calculated based on a standard curve generated using serum containing known TNYL-RAW concentrations. The half-life of each peptide was estimated by using non linear regression and the program Prism (GraphPad Software Inc.). The area under the curve (AUC) was expressed as % ID•hours/ml (where ID is the initial dose of peptide injected) and calculated by dividing the AUC value obtained using the program Prism by the amount of injected peptide and multiplying by 100.
# [2] = system: EphB4; details: cell culture; cited from earlier work
# Method: An explanation for the discrepancy in the potency of the peptide in biochemical and cell culture assays could be that TNYL-RAW is susceptible to degradation by proteases present in cell culture medium. For example, trypsin-like proteases are l ... || Despite the low nanomolar EphB4 binding affinity of TNYL-RAW, the very short half-life of the peptide greatly limits its effectiveness, as exemplified by the high concentrations (10–100 µM) needed to inhibit EphB4-ephrin-B2 interaction in cell culture, [33], [36], [37]. We used three strategies to improve TNYL-RAW stability in cell culture and circulating half-life: fusion with Fc, complexation with streptavidin and covalent coupling to 40 KDa polymeric PEG molecules. Fusion with Fc has been successfully used to improve the stability and pharmacokinetic properties of numerous prot ...
compound,measurement,setting,value
CC[C@H](C)[C@H](NC(=O)[C@@H]1CCCN1C(=O)CNC(=O)[C@H](CC(N)=O)NC(=O)[C@@H]1CCCN1C(=O)[C@H](CO)NC(=O)[C@H](Cc1ccccc1)NC(=O)[C@H](CC(C)C)NC(=O)[C@H](Cc1ccc(O)cc1)NC(=O)[C@H](CC(N)=O)NC(=O)[C@@H](N)[C@@H](C)O)C(=O)N[C@@H](C)C(=O)N[C@@H](CCCNC(=N)N)C(=O)N[C@@H](C)C(=O)N[C@@H](Cc1c[nH]c2ccccc12)C(=O)NCCCCCC(=O)N[C@@H](CCCCNC(=O)CCCC[C@@H]1SC[C@@H]2NC(=O)N[C@@H]21)C(N)=O [TNYL-RAW] (H-TNYLFSPNGPIARAW[Ahx]K(Biotin)-NH2; N-terminus and C-terminus assumed),Detection in mouse serum 30 min after intravenous administration,[1],could not be detected; also recorded: undetectable
same,Peptide concentrations needed to substantially inhibit ephrin-B2-induced EphB4 tyrosine phosphorylation and downstream effects / EphB4-ephrin-B2 interaction in cultured cells,[2],10 to 100 µM
